From patent publication US20220162192A1 (ESCAPE Bio, Inc., priority 2019, published 2022) come the findings set out here.

As a reminder, the IC50 is the concentration that inhibits the measured activity by half.

Experiment [1] addresses T1, Recombinant G2019S-LRRK2 protein (Homo sapiens, UniProt Q5S007, G2019S).
T1 construct: purchased Life Technologies PV4881
Put plainly: LanthaScreen Kinase Activity Assay (TR-FRET), G2019S-LRRK2. The settings on record: class symbols; 25 μM ATP, 400 nM LRRKtide, 2.9 nM kinase, 60 min at room temperature. It is filed as biochemical. A digest of the protocol: (§1)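 Recombinant wild-type or G2019S LRRK2 (2.9 nM final) phosphorylated fluorescein-LRRKtide (400 nM) with 25 μM ATP in 50 mM Tris pH 8.5, 5 mM MgCl2, 1 mM EGTA, 0.01% Brij-35, 2 mM DTT for 60 min at RT. After EDTA stop, Tb-anti-pERM TR-FRET (520/495 nm ratio) was read. IC50 values came from 11-point, 3-fold compound dilutions.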

Experiment [2] addresses T2, Recombinant wild type LRRK2 protein (Homo sapiens, UniProt Q5S007).
T2 construct: purchased Life Technologies PR8604B
In words: LanthaScreen Kinase Activity Assay (TR-FRET), wild type LRRK2. The following applies: class symbols; 25 μM ATP, 400 nM LRRKtide, 2.9 nM kinase, 60 min at room temperature; read-out: LRRK2 WT IC50. The class given is biochemical. The essentials: as §1

A value given as a limit tells only on which side of the number the result lay.

T1 sequence (Q5S007 whole entry G2019S): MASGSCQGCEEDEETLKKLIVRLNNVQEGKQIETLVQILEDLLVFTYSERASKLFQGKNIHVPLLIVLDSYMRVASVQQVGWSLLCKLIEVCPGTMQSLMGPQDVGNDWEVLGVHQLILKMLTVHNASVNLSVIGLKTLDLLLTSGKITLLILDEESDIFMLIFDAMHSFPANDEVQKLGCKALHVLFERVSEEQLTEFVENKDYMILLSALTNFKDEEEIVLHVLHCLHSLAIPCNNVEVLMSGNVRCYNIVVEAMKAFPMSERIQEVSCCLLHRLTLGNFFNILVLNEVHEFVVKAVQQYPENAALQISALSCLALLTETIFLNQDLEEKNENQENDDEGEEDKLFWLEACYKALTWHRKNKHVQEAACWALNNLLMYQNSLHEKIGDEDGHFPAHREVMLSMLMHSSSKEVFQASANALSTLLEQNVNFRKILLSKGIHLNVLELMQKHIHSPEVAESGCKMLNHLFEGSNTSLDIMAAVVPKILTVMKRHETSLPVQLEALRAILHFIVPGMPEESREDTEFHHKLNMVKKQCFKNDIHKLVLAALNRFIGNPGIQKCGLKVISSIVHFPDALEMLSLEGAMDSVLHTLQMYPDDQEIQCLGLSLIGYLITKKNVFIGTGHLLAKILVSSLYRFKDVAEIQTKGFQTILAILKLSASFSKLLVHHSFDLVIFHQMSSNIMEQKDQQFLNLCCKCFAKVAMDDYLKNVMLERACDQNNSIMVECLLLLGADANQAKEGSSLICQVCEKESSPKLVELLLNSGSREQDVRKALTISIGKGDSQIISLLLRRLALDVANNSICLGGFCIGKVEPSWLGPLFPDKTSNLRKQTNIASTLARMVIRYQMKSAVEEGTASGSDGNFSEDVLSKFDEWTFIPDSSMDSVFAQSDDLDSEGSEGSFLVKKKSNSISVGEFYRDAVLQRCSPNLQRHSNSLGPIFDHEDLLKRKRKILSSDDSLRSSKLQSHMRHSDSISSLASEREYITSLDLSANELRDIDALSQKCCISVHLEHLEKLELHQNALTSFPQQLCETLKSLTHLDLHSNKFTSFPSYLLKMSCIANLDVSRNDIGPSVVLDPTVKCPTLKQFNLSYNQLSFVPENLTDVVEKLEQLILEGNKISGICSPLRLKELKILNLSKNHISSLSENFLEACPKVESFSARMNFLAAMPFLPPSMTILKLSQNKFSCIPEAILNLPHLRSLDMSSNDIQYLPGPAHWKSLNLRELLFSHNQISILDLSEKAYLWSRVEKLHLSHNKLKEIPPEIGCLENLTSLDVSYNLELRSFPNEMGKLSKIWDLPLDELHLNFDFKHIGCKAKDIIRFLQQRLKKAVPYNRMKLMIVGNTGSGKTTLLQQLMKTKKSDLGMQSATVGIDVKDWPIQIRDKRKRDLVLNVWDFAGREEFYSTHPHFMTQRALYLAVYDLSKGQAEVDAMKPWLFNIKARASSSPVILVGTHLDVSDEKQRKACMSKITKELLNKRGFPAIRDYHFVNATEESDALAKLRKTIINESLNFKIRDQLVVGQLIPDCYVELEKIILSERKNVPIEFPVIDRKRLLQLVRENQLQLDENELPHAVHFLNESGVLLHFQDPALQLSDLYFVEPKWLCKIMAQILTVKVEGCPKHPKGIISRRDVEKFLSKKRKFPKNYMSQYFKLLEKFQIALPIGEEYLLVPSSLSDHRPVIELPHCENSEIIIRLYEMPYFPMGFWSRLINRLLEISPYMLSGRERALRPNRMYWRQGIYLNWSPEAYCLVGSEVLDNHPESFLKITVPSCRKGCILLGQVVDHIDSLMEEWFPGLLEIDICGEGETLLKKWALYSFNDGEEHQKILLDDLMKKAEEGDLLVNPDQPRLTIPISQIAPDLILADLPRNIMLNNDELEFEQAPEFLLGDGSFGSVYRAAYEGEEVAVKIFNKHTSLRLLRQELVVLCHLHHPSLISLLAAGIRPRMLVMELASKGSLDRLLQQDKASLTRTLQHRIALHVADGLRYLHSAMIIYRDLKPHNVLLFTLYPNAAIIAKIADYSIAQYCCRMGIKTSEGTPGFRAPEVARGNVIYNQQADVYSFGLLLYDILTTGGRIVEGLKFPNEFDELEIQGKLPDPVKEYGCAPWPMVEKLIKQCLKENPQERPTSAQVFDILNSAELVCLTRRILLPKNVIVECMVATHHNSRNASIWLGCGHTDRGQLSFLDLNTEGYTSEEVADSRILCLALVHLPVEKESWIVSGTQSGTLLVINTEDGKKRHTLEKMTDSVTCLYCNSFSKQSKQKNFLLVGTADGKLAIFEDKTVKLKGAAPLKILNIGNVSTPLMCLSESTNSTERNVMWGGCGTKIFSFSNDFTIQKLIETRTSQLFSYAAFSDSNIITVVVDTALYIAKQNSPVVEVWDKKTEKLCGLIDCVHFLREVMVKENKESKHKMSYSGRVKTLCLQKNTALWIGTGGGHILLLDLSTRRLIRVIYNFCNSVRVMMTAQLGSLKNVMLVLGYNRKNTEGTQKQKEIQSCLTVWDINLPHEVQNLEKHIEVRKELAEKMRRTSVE
T2 sequence (Q5S007 whole entry): as the sequence (Q5S007 whole entry G2019S) above, with S2019G counted along it

On to `Cn1ncc2c(F)c(C(=O)Nc3ccc4[nH]nc(-c5ccsc5)c4c3)c(F)cc21` [Example 100, 4,6-Difluoro-1-methyl-N-(3-(thiophen-3-yl)-1H-indazol-5-yl)-1H-indazole-5-carboxamide], for which the IC50 in experiment [1] and in experiment [2] was ≤ 100 nM in each case.
For `Cn1ncc2c(F)c(C(=O)Nc3ccc4[nH]nc(-c5cnccc5C(F)(F)F)c4c3)c(F)cc21` [Example 91, 4,6-Difluoro-1-methyl-N-(3-(4-(trifluoromethyl)pyridin-3-yl)-1H-indazol-5-yl)-1H-indazole-5-carboxamide], the IC50 lay in the range of 100 to 1000 nM in experiment [1] and 1000 to 10000 nM in experiment [2].
As to `O=C(Nc1ccc2[nH]nc(-c3ccccc3)c2c1)c1cc2[nH]ncc2cc1C(F)(F)F` [Example 70, N-(3-Phenyl-1H-indazol-5-yl)-5-(trifluoromethyl)-1H-indazole-6-carboxamide], the values for the IC50 in experiment [1] and in experiment [2] were ≤ 100 nM and 100 to 1000 nM, respectively.
With `COc1ncccc1-c1n[nH]c2ccc(NC(=O)c3c(F)cc4c(cnn4C)c3F)cc12` [Example 81, 4,6-Difluoro-N-(3-(2-methoxypyridin-3-yl)-1H-indazol-5-yl)-1-methyl-1H-indazole-5-carboxamide], the IC50 in experiment [1] is ≤ 100 nM; in experiment [2], 100 to 1000 nM.
`Cc1cc2cncn2c(C)c1C(=O)Nc1ccc2[nH]nc(-c3ccoc3)c2c1` [Example 151, N-(3-(Furan-3-yl)-1H-indazol-5-yl)-5,7-dimethylimidazo[1,5-a]pyridine-6-carboxamide]: the IC50 in experiment [1] and in experiment [2] was ≤ 100 nM throughout.
Regarding `Cn1ncc2c(F)c(C(=O)Nc3ccc4[nH]nc(-c5ccoc5)c4c3)c(F)cc21` [Example 28, 4,6-Difluoro-N-(3-(furan-3-yl)-1H-indazol-5-yl)-1-methyl-1H-indazole-5-carboxamide], the half-inhibitory concentration (IC50) in experiment [1] and in experiment [2] was ≤ 100 nM each time.
Take `Cc1c(C(=O)Nc2ccc3[nH]nc(-c4ccncc4)c3c2)ccc2[nH]nnc12` [Example 12, 4-Methyl-N-(3-(pyridin-4-yl)-1H-indazol-5-yl)-1H-benzo[d][1,2,3]triazole-5-carboxamide]: the IC50 in experiment [1] was ≤ 100 nM; in experiment [2], 100 to 1000 nM.
Turning to `O=C(Nc1ccc2[nH]nc(-c3ccoc3)c2c1)c1ccc2ncsc2c1` [Example 123, N-(3-(Furan-3-yl)-1H-indazol-5-yl)benzo[d]thiazole-6-carboxamide], the IC50 in experiment [1] was ≤ 100 nM; in experiment [2], 100 to 1000 nM.
Turning to `Cn1cc(-c2n[nH]c3ccc(NC(=O)c4c(F)cc5c(cnn5C)c4F)cc23)cn1` [Example 35, 4,6-Difluoro-1-methyl-N-(3-(1-methyl-1H-pyrazol-4-yl)-1H-indazol-5-yl)-1H-indazole-5-carboxamide], the IC50 in experiment [1] and in experiment [2] was ≤ 100 nM each time.
In the case of `Cc1cc2nn[nH]c2cc1C(=O)Nc1ccc2[nH]nc(-c3cccc(N4CCOCC4)c3)c2c1` [Example 2, 5-Methyl-N-(3-(3-morpholinophenyl)-1H-indazol-5-yl)-1H-benzo[d][1,2,3]triazole-6-carboxamide], the IC50 in experiment [1] and in experiment [2] was ≤ 100 nM throughout.
In the case of `Cc1ccc(-c2n[nH]c3ccc(NC(=O)c4c(F)cc5c(cnn5C)c4F)cc23)s1` [Example 97, 4,6-Difluoro-1-methyl-N-(3-(5-methylthiophen-2-yl)-1H-indazol-5-yl)-1H-indazole-5-carboxamide], the IC50 in experiment [1] and in experiment [2] was ≤ 100 nM throughout.
On to `Cn1ncc2c(F)c(C(=O)Nc3ccc4[nH]nc(-c5ncco5)c4c3)c(F)cc21` [Example 138, 4,6-Difluoro-1-methyl-N-(3-(oxazol-2-yl)-1H-indazol-5-yl)-1H-indazole-5-carboxamide], for which the IC50 in experiment [1] was ≤ 100 nM; in experiment [2], 100 to 1000 nM.
On to `Cc1cc(C(=O)Nc2ccc3[nH]nc(-c4ccncc4)c3c2)cc2nn[nH]c12` [Example 13, 7-Methyl-N-(3-(pyridin-4-yl)-1H-indazol-5-yl)-1H-benzo[d][1,2,3]triazole-5-carboxamide], for which the IC50 in experiment [1] and in experiment [2] was 100 to 1000 nM each time.
With `Cn1ncc2c1CCC(C(=O)Nc1ccc3[nH]nc(-c4ccoc4)c3c1)C2` (single isomer, unassigned) [Example 161b], the IC50 in experiment [1] is ≤ 100 nM; in experiment [2], 100 to 1000 nM.
Regarding `Cc1cc(-c2n[nH]c3ccc(NC(=O)c4c(F)cc5c(cnn5C)c4F)cc23)cc(C)n1` [Example 83, N-(3-(2,6-Dimethylpyridin-4-yl)-1H-indazol-5-yl)-4,6-difluoro-1-methyl-1H-indazole-5-carboxamide], the IC50 in experiment [1] and in experiment [2] was ≤ 100 nM in each case.
Consider `Cc1cccc(-c2n[nH]c3ccc(NC(=O)c4c(F)cc5c(cnn5C)c4F)cc23)n1` [Example 71, 4,6-Difluoro-1-methyl-N-(3-(6-methylpyridin-2-yl)-1H-indazol-5-yl)-1H-indazole-5-carboxamide], for which the IC50 in experiment [1] is ≤ 100 nM; in experiment [2] it was 100 to 1000 nM.
In the same order, the values of `COc1ccccc1-c1n[nH]c2ccc(NC(=O)c3c(F)cc4c(cnn4C)c3F)cc12` [Example 85, 4,6-Difluoro-N-(3-(2-methoxyphenyl)-1H-indazol-5-yl)-1-methyl-1H-indazole-5-carboxamide] are ≤ 100 nM and 1000 to 10000 nM.
Regarding `CN(C)c1ccc(-c2n[nH]c3ccc(NC(=O)c4c(F)cc5c(cnn5C)c4F)cc23)cc1` [Example 87, N-(3-(4-(Dimethylamino)phenyl)-1H-indazol-5-yl)-4,6-difluoro-1-methyl-1H-indazole-5-carboxamide], the 50% inhibitory concentration (IC50) in experiment [1] and in experiment [2] was ≤ 100 nM throughout.
For `Cn1ncc2c(F)c(C(=O)Nc3ccc4[nH]nc(-c5cncnc5)c4c3)c(F)cc21` [Example 34, 4,6-Difluoro-1-methyl-N-(3-(pyrimidin-5-yl)-1H-indazol-5-yl)-1H-indazole-5-carboxamide], the figures for the IC50 in experiment [1] and in experiment [2] were ≤ 100 nM and 100 to 1000 nM, respectively.
Consider `Cc1cccc(-c2n[nH]c3ccc(NC(=O)c4c(F)cc5c(cnn5C)c4F)cc23)c1` [Example 76, 4,6-Difluoro-1-methyl-N-(3-(m-tolyl)-1H-indazol-5-yl)-1H-indazole-5-carboxamide], for which the 50% inhibitory concentration (IC50) in experiment [1] and in experiment [2] was ≤ 100 nM in each case.
For `COc1cnccc1-c1n[nH]c2ccc(NC(=O)c3c(F)cc4c(cnn4C)c3F)cc12` [Example 103, 4,6-Difluoro-N-(3-(3-methoxypyridin-4-yl)-1H-indazol-5-yl)-1-methyl-1H-indazole-5-carboxamide], the IC50 was ≤ 100 nM in experiment [1] and 100 to 1000 nM in experiment [2].
On to `Cc1cc2c(C)nnn2c(C)c1C(=O)Nc1ccc2[nH]nc(-c3ccccc3)c2c1` [Example 64, 3,5,7-Trimethyl-N-(3-phenyl-1H-indazol-5-yl)-[1,2,3]triazolo[1,5-a]pyridine-6-carboxamide], for which the IC50 in experiment [1] is ≤ 100 nM; in experiment [2] it was 100 to 1000 nM.
In the same order, the values of `Cc1ccccc1-c1n[nH]c2ccc(NC(=O)c3c(F)cc4c(cnn4C)c3F)cc12` [Example 77, 4,6-Difluoro-1-methyl-N-(3-(o-tolyl)-1H-indazol-5-yl)-1H-indazole-5-carboxamide] are 1000 to 10000 nM and 1000 to 10000 nM.
As to `Cn1ncc2cc(C(=O)Nc3ccc4[nH]nc(-c5ccccc5)c4c3)ccc21` [Example 107, 1-Methyl-N-(3-phenyl-1H-indazol-5-yl)-1H-indazole-5-carboxamide], the IC50 was 100 to 1000 nM in experiment [1] and 1000 to 10000 nM in experiment [2].
Turning to `O=C(Nc1ccc2[nH]nc(-c3ccoc3)c2c1)c1ccc2scnc2c1` [Example 124, N-(3-(Furan-3-yl)-1H-indazol-5-yl)benzo[d]thiazole-5-carboxamide], the IC50 in experiment [1] and in experiment [2] was 100 to 1000 nM in each case.
As to `O=C(Nc1ccc2[nH]nc(-c3ccoc3)c2c1)C1CCc2nncn2C1` (single isomer, unassigned) [Example 162b], the results for the IC50 in experiment [1] and in experiment [2] were ≤ 100 nM and 100 to 1000 nM, respectively.
`Cn1ncc2c(F)c(C(=O)Nc3ccc4[nH]nc(-c5cncc(N6CCOCC6)c5)c4c3)c(F)cc21` [Example 98, 4,6-Difluoro-1-methyl-N-(3-(5-morpholinopyridin-3-yl)-1H-indazol-5-yl)-1H-indazole-5-carboxamide]: the IC50 in experiment [1] and in experiment [2] was ≤ 100 nM throughout.
For `Cc1cc2cnnn2c(C)c1C(=O)Nc1ccc2[nH]nc(-c3ccco3)c2c1` [Example 155, N-(3-(Furan-2-yl)-1H-indazol-5-yl)-5,7-dimethyl-[1,2,3]triazolo[1,5-a]pyridine-6-carboxamide], the half-inhibitory concentration (IC50) in experiment [1] and in experiment [2] was ≤ 100 nM in each case.
`Cc1c(C(=O)Nc2ccc3[nH]nc(-c4ccoc4)c3c2)cnc2cncn12` [Example 113, N-(3-(Furan-3-yl)-1H-indazol-5-yl)-4-methylimidazo[1,5-a]pyrimidine-3-carboxamide]: the IC50 in experiment [1] and in experiment [2] was ≤ 100 nM throughout.
Take `COc1ccc(C)c(-c2n[nH]c3ccc(NC(=O)c4c(F)cc5c(cnn5C)c4F)cc23)c1` [Example 90, 4,6-Difluoro-N-(3-(5-methoxy-2-methylphenyl)-1H-indazol-5-yl)-1-methyl-1H-indazole-5-carboxamide]: the figures for the IC50 in experiment [1] and in experiment [2] were 100 to 1000 nM and 1000 to 10000 nM, respectively.
For `Cn1ncc2c(F)c(C(=O)Nc3ccc4[nH]nc(-c5ccccc5)c4c3)c(F)cc21` [Example 50, 4,6-Difluoro-1-methyl-N-(3-phenyl-1H-indazol-5-yl)-1H-indazole-5-carboxamide], the values for the IC50 in experiment [1] and in experiment [2] were ≤ 100 nM and 100 to 1000 nM, respectively.
